Laboratory results published in PMC6576746, “Rational discovery of dual-indication multi-target PDE/Kinase inhibitor for precision anti-cancer therapy using structural systems pharmacology” (PLoS Computational Biology, 2019).
pEC50, pIC50: −log10 of the molar value.

Key:
Experiment in all cases: cells
Design in all cases: species or system panel of human cancer cell lines; Eurofins OncoPanel proliferation; nuclei count by high-content fluorescence imaging, 10-point dose response
A431 = details: Homo sapiens, A-431, 72 h, cell count, 3 days
Procedure, shortened: (§1)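 Ten half-log concentrations from 100 μM (0.1% DMSO max) applied one day post-seeding, 3-day exposure at 37°C; untreated time-zero plate for GI50. Readout is nuclear cell count by automated fluorescence imaging, giving EC50, IC50, GI50 and 0–10 activity area.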

CCRFCEM = details: Homo sapiens, CCRF-CEM, 72 h, cell count, 3 days
Procedure, shortened: as §1

H4 = details: 72 h, cell count, 3 days
Procedure, shortened: as §1

HepG2 = details: Homo sapiens, HepG2, 72 h, cell count, 3 days
Procedure, shortened: as §1

Hs 888.Sk = details: 72 h, cell count, 3 days
Procedure, shortened: as §1

Jiyoye = details: Homo sapiens, JIYOYE, 72 h, cell count, 3 days
Procedure, shortened: as §1

KU812 = details: Homo sapiens, KU812, 72 h, cell count, 3 days
Procedure, shortened: as §1

LS411N = details: Homo sapiens, LS-411N, 72 h, cell count, 3 days
Procedure, shortened: as §1

OE21 = details: OE21, 72 h, cell count, 3 days
Procedure, shortened: as §1

RS4;11 = details: Homo sapiens, RS4-11, 72 h, cell count, 3 days
Procedure, shortened: as §1

SJSA1 = details: Homo sapiens, SJSA-1, 72 h, cell count, 3 days
Procedure, shortened: as §1

SW-13 = details: Homo sapiens, SW13, 72 h, cell count, 3 days
Procedure, shortened: as §1

SW872 = details: Homo sapiens, SW872, 72 h, cell count, 3 days
Procedure, shortened: as §1

SW954 = details: Homo sapiens, SW 954, 72 h, cell count, 3 days
Procedure, shortened: as §1

[1] = 50% of maximum possible response

C[C@@H]1CC(=O)NN=C1c1ccc(NN=C(C#N)C#N)cc1 [levosimendan]
pIC50 (A431; [1]): 4.35
GI50 (A431; corrected for time zero): 42.8 µM
pEC50 (A431; curve inflection point): 4.35
pIC50 (CCRFCEM; [1]): 4.45
GI50 (CCRFCEM; corrected for time zero): 28.5 µM
pEC50 (CCRFCEM; curve inflection point): 4.45
pIC50 (H4; [1]): < 4.00
GI50 (H4; corrected for time zero): > 100 µM
pEC50 (H4; curve inflection point): < 4.00
pIC50 (HepG2; [1]): 4.38
GI50 (HepG2; corrected for time zero): 36.7 µM
pEC50 (HepG2; curve inflection point): 4.38
pIC50 (Hs 888.Sk; [1]): < 4.00
GI50 (Hs 888.Sk; corrected for time zero): 47.6 µM
pEC50 (Hs 888.Sk; curve inflection point): < 4.00
pIC50 (Jiyoye; [1]): 4.20
GI50 (Jiyoye; corrected for time zero): 54.6 µM
pEC50 (Jiyoye; curve inflection point): 4.20
pIC50 (KU812; [1]): 4.15
GI50 (KU812; corrected for time zero): 48.8 µM
pEC50 (KU812; curve inflection point): 4.15
pIC50 (LS411N; [1]): < 4.00
GI50 (LS411N; corrected for time zero): > 100 µM
pEC50 (LS411N; curve inflection point): < 4.00
pIC50 (OE21; [1]): 4.07
GI50 (OE21; corrected for time zero): 76 µM
pEC50 (OE21; curve inflection point): 4.07
pIC50 (RS4;11; [1]): 4.53
GI50 (RS4;11; corrected for time zero): 19.6 µM
pEC50 (RS4;11; curve inflection point): 4.60
pIC50 (SJSA1; [1]): 4.38
GI50 (SJSA1; corrected for time zero): 18.4 µM
pEC50 (SJSA1; curve inflection point): 4.38
pIC50 (SW-13; [1]): 5.21
GI50 (SW-13; corrected for time zero): 3.72 µM
pEC50 (SW-13; curve inflection point): 5.21
pIC50 (SW872; [1]): 4.45
GI50 (SW872; corrected for time zero): 28.9 µM
pEC50 (SW872; curve inflection point): 4.45
pIC50 (SW954; [1]): 4.65
GI50 (SW954; corrected for time zero): 20.5 µM
pEC50 (SW954; curve inflection point): 4.66
